Our source for the IC50 values is patent US20210114983A1, “Cathepsin C inhibitors” (National Institute of Biological Sciences, Beijing, priority 2018, published 2021).

Each structure is given as a SMILES string.

The target in this experiment is rhCatC (Cathepsin C) (Homo sapiens, UniProt P53634). Nature of the experiment: In Vitro CatC Enzyme Assay. Type of experiment: biochemical. To be noted: read-out: Cat C Enzy (Cathepsin C inhibitory activity, IC50). As for the experimental part: In Vitro CatC Enzyme Assay
Chain of rhCatC (Cathepsin C) (P53634 25-134 limits assumed): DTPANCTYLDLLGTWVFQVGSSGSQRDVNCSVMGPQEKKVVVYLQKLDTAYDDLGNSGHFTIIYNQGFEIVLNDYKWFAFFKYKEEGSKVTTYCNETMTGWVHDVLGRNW
Chain of rhCatC (Cathepsin C) (P53634 231-394 limits assumed): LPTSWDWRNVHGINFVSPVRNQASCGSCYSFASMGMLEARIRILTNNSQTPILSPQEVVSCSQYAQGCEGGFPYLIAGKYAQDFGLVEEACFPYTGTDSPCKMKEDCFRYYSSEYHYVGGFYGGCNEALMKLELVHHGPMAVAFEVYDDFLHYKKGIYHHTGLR
Chain of rhCatC (Cathepsin C) (P53634 395-463 limits assumed): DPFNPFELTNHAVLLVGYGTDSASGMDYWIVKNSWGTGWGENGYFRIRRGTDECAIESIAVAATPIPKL
The CatC enzyme assay was performed in black 384-well plate. Firstly, rhCatC (440 nM) was activated by rhCatL (300 nM) in activation buffer (25 mM MES, 5 mM DTT, pH 6.0) at room temperature for 2 h and then activated rhCatC was diluted to 4.4 nM in assay buffer (25 mM MES, 50 mM NaCl, 5 mM DTT, 0.01% (v/v) Triton X100, pH 6.0), 14 μL activated rhCatC and 1 μL compound in 10% DMSO or 10% DMSO were incubated at room temperature for 3 h, and 5 μL substrate (Gly-Phe-AFC) was added to final concentration of 100 μM. After 60 min reaction, the product of the reaction was measured in the Enspire plate reader using Ex λ400 nm and Em λ505 nm for AFC. A standard irreversible CatC inhibitor 10 by AstraZeneca (J. Med. Chem. 2014, 57, 2357-2367) was used as an inhibitor control in the assay.
With `C/C=C/C(=O)Nc1cccc(Oc2nc(Nc3ccc(N4CCNCC4)cc3)ccc2Cl)c1` [Compound 8], the IC50 is 300 to 30000 nM.

On to `CC#CC(=O)Nc1cc(Oc2nc(Nc3ccc(N4CCN(C)CC4)cc3OC)ccc2N2CCCCC2)ccc1C` [Compound 47, N-(5-((6-((2-methoxy-4-(4-methylpiperazin-1-yl)phenyl)amino)-3-(piperidin-1-yl)pyridin-2-yl)oxy)-2-methylphenyl)but-2-ynamide], for which the IC50 lay in the range of 300 to 30000 nM.

Turning to `C=CC(=O)Nc1cccc(Oc2nc(Nc3ccc(N4CCC[C@@H](N)C4)cc3OC)ccc2Cl)c1` [Compound 9, (R)-N-(3-((6-((4-(3-aminopiperidin-1-yl)-2-methoxyphenyl)amino)-3-chloropyridin-2-yl)oxy)phenyl)acrylamide], the IC50 lay within 300 to 30000 nM.

For the compound `C=CC(=O)Nc1cc(Oc2nc(Nc3ccc(N4CCN(C)CC4)cc3OC)ccc2N2CCCC2)ccc1C` [Compound 29, N-(5-((6-((2-methoxy-4-(4-methylpiperazin-1-yl)phenyl)amino)-3-(pyrrolidin-1-yl)pyridin-2-yl)oxy)-2-methylphenyl)acrylamide], the IC50 lay in the range of 3 to 300 nM.

Regarding `C=CC(=O)Nc1cccc(Oc2nc(Nc3ccc(N4CCN(C)CC4)cc3OC)ccc2N2CCCCCC2)c1` [Compound 53, N-(3-((3-(azepan-1-yl)-6-((2-methoxy-4-(4-methylpiperazin-1-yl)phenyl)amino)pyridin-2-yl)oxy)phenyl)acrylamide], the half-maximal inhibitory concentration (IC50) was in the range of 3 to 300 nM.

Take `C=C(F)C(=O)Nc1cc(Oc2nc(Nc3ccc(N4CCN(C)CC4)cc3OC)ccc2N2CCCCC2)ccc1C` [Compound 49, 2-fluoro-N-(5-((6-((2-methoxy-4-(4-methylpiperazin-1-yl)phenyl)amino)-3-(piperidin-1-yl)pyridin-2-yl)oxy)-2-methylphenyl)acrylamide]: the IC50 lay in the range of 300 to 30000 nM.

On to `C=CC(=O)Nc1cccc(Oc2nc(Nc3ccc(N4CCN(C)CC4)cc3OC)ccc2Cl)c1` [Compound 1, N-(3-((3-chloro-6-((2-methoxy-4-(4-methylpiperazin-1-yl)phenyl)amino)pyridin-2-yl)oxy)phenyl)acrylamide], for which the IC50 lay within 300 to 30000 nM.

As for `C=CC(=O)Nc1cc(Oc2nc(Nc3ccc(N4CCC(N(C)C)CC4)cn3)ccc2N2CCCCC2)ccc1C` [Compound 55], the IC50 was in the range of 300 to 30000 nM.

For `C#CC(=O)Nc1cc(Oc2nc(Nc3ccc(N4CCN(C)CC4)cc3OC)ccc2N2CCCCC2)ccc1C` [Compound 48, N-(5-((6-((2-methoxy-4-(4-methylpiperazin-1-yl)phenyl)amino)-3-(piperidin-1-yl)pyridin-2-yl)oxy)-2-methylphenyl)propiolamide], the half-maximal inhibitory concentration (IC50) was 3 to 300 nM.

On to `C=CC(=O)Nc1cc(Oc2nc(Nc3ccc(N4CCN(C)CC4)cc3OC)ccc2-c2ccccc2)ccc1C` [Compound 34, N-(5-((6-((2-methoxy-4-(4-methylpiperazin-1-yl)phenyl)amino)-3-phenylpyridin-2-yl)oxy)-2-methylphenyl)acrylamide], for which the IC50 was in the range of 3 to 300 nM.

Turning to `C#Cc1ccc(Nc2ccc(N3CCN(C)CC3)cc2OC)nc1Oc1cccc(NC(=O)C=C)c1` [Compound 23, N-(3-((3-ethynyl-6-((2-methoxy-4-(4-methylpiperazin-1-yl)phenyl)amino)pyridin-2-yl)oxy)phenyl)acrylamide], the IC50 fell in the range of 300 to 30000 nM.

On to `C=CC(=O)Nc1cccc(Oc2nc(Nc3ccc(N4CCN(C)CC4)cc3OC)ccc2N(C)C)c1` [Compound 22, N-(3-((3-(dimethylamino)-6-((2-methoxy-4-(4-methylpiperazin-1-yl)phenyl)amino)pyridin-2-yl)ox)phenyl)acrylamide], for which the 50% inhibitory concentration (IC50) is 300 to 30000 nM.

`C=CC(=O)Nc1cccc(Oc2nc(Nc3ccc(N4CCNCC4)cc3)ccc2Cl)c1` [Compound 7, N-(3-((3-chloro-6-((4-(piperazin-1-yl)phenyl)amino)pyridin-2-yl)oxy)phenyl)acrylamide]: the IC50 was 300 to 30000 nM.

Turning to `C=CC(=O)Nc1cccc(Oc2nc(Nc3ccc(N4CCN(C)CC4)c(OC)c3)ccc2Cl)c1` [Compound 11, N-(3-((3-chloro-6-((3-methoxy-4-(4-methylpiperazin-1-yl)phenyl)amino)pyridin-2-yl)oxy)phenyl)acrylamide], the IC50 fell in the range of 300 to 30000 nM.

Regarding `C#CC(=O)Nc1cccc(Oc2nc(Nc3ccc(N4CCN(C)CC4)cc3OC)ccc2Cl)c1` [Compound 13, N-(3-((3-chloro-6-((2-methoxy-4-(4-methylpiperazin-1-yl)phenyl)amino)pyridin-2-yl)oxy)phenyl)propiolamide], the IC50 lay in the range of 300 to 30000 nM.

Regarding `C=CC(=O)Nc1cccc(Oc2nc(N(C)c3ccc(N4CCNCC4)cc3)ccc2Cl)c1` [Compound 26], the IC50 was in the range of 300 to 30000 nM.

`C=CC(=O)Nc1cc(Oc2nc(Nc3ccc(N4CCN(C(C)=O)CC4)cc3OC)ccc2N2CCCCC2)ccc1C` [Compound 36, N-(5-((6-((4-(4-acetylpiperazin-1-yl)-2-methoxyphenyl)amino)-3-(piperidin-1-yl)pyridin-2-yl)oxy)-2-methylphenyl)acrylamide]: the IC50 fell in the range of 3 to 300 nM.

For the compound `C=CC(=O)Nc1cc(Oc2cccc(Nc3ccc(N4CCN(C)CC4)cc3OC)n2)ccc1OC` [Compound 40, N-(2-methoxy-5-((6-((2-methoxy-4-(4-methylpiperazin-1-yl)phenyl)amino)pyridin-2-yl)oxy)phenyl)acrylamide], the IC50 lay in the range of 300 to 30000 nM.

Consider `C=CC(=O)Nc1cc(Oc2nc(Nc3ccc(N4CCC(N(C)C)CC4)cc3OC)ccc2N2CCCCC2)ccc1C` [Compound 37, N-(5-((6-((4-(4-(dimethylamino)piperidin-1-yl)-2-methoxyphenyl)amino)-3-(piperidin-1-yl)pyridin-2-yl)oxy)-2-methylphenyl)acrylamide], for which the IC50 lay in the range of 3 to 300 nM.

On to `COc1cc(N2CCN(C)CC2)ccc1Nc1ccc(Cl)c(Oc2cccc(NC(=O)C=C(C)C)c2)n1` [Compound 12, N-(3-((3-chloro-6-((2-methoxy-4-(4-methylpiperazin-1-yl)phenyl)amino)pyridin-2-yl)oxy)phenyl)-3-methylbut-2-enamide], for which the IC50 fell in the range of 300 to 30000 nM.

`C=CC(=O)Nc1cc(Oc2nc(Nc3ccc(N4CCN(C)CC4)cc3OC)ccc2Cl)ccc1C(F)(F)F` [Compound 50, N-(5-((3-chloro-6-((2-methoxy-4-(4-methylpiperazin-1-yl)phenyl)amino)pyridin-2-yl)oxy)-2-(trifluoromethyl)phenyl)acrylamide]: the IC50 was 3 to 300 nM.

`C=CC(=O)Nc1cc(Oc2nc(Nc3ccc(N4CCN(C)CC4)nc3OC)ccc2N2CCCCC2)ccc1C` [Compound 35, N-(5-((6-((2-methoxy-6-(4-methylpiperazin-1-yl)pyridin-3-yl)amino)-3-(piperidin-1-yl)pyridin-2-yl)oxy)-2-methylphenyl)acrylamide]: the IC50 fell in the range of 3 to 300 nM.

In the case of `COc1cc(N2CCN(C)CC2)ccc1Nc1ccc(N2CCCCC2)c(Oc2ccc(C)c(NC(=O)C=C(C)C)c2)n1` [Compound 46, N-(5-((6-((2-methoxy-4-(4-methylpiperazin-1-yl)phenyl)amino)-3-(piperidin-1-yl)pyridin-2-yl)oxy)-2-methylphenyl)-3-methylbut-2-enamide], the IC50 lay in the range of 300 to 30000 nM.

In the case of `C=CC(=O)Nc1cc(Oc2nc(Nc3ccc(N4CCN(C)CC4)cc3)ccc2N2CCCCC2)ccc1C` [Compound 38, N-(2-methyl-5-((6-((4-(4-methylpiperazin-1-yl)phenyl)amino)-3-(piperidin-1-yl)pyridin-2-yl)oxy)phenyl)acrylamide], the IC50 was in the range of 3 to 300 nM.

In the case of `C=CC(=O)Nc1cc(Oc2cccc(Nc3ccc(N4CCN(C)CC4)cc3OC)n2)ccc1C` [Compound 43, N-(5-((6-((2-methoxy-4-(4-methylpiperazin-1-yl)phenyl)amino)pyridin-2-yl)oxy)-2-methylphenyl)acrylamide], the IC50 lay in the range of 3 to 300 nM.

As for `C=CC(=O)Nc1cc(Oc2cccc(Nc3ccc(N4CCN(C)CC4)cc3OC)n2)ccc1C(F)(F)F` [Compound 51, N-(5-((6-((2-methoxy-4-(4-methylpiperazin-1-yl)phenyl)amino)pyridin-2-yl)oxy)-2-(trifluoromethyl)phenyl)acrylamide], the IC50 is 3 to 300 nM.

In the case of `C=CC(=O)Nc1cc(Oc2nc(Nc3ccc(N4CCN(C)CC4)cc3OC)ccc2Cl)ccc1C` [Compound 18, N-(5-((3-chloro-6-((2-methoxy-4-(4-methylpiperazin-1-yl)phenyl)amino)pyridin-2-yl)oxy)-2-methylphenyl)acrylamide], the IC50 lay within 300 to 30000 nM.

For `C=CC(=O)Nc1cccc(N(C)c2cccc(Nc3ccc(N4CCN(C)CC4)cc3OC)n2)c1` [Compound 24, N-(3-((6-((2-methoxy-4-(4-methylpiperazin-1-yl)phenyl)amino)pyridin-2-yl)(methyl)amino)phenyl)acrylamide], the IC50 was in the range of 300 to 30000 nM.

Take `C=CC(=O)Nc1cccc(Nc2nc(Nc3ccc(N4CCN(C)CC4)cc3OC)ccc2Cl)c1` [Compound 19, N-(3-((3-chloro-6-((2-methoxy-4-(4-methylpiperazin-1-yl)phenyl)amino)pyridin-2-yl)amino)phenyl)acrylamide]: the IC50 was in the range of 300 to 30000 nM.

In the case of `C=CC(=O)Nc1cc(Oc2nc(Nc3ccc(N4CCN(C)CC4)cc3OC)ccc2N2CCCC2)ccc1C(F)(F)F` [Compound 44, N-(5-((6-((2-methoxy-4-(4-methylpiperazin-1-yl)phenyl)amino)-3-(pyrrolidin-1-yl)pyridin-2-yl)oxy)-2-(trifluoromethyl)phenyl)acrylamide], the IC50 fell in the range of 3 to 300 nM.

In the case of `C=CC(=O)Nc1cccc(Oc2nc(Nc3ccc(N4CCN(C)CC4)cc3OC)ccc2C(F)(F)F)c1` [Compound 16, N-(3-((6-((2-methoxy-4-(4-methylpiperazin-1-yl)phenyl)amino)-3-(trifluoromethyl)pyridin-2-yl)oxy)phenyl)acrylamide], the IC50 was in the range of 300 to 30000 nM.
